Reference: patent publication US11584727B2, “2-thioxothiazolidin-4-one derivatives active as transthyretin ligands and uses thereof” (BSIM Therapeutics, S.A., priority 2014, dated 2023)
Read-outs that look alike come from different tables or passages of the source.

What was measured:
[1] = target: T1, wild type transthyretin (WT-TTR) (Homo sapiens, UniProt P02766); assay: WT-TTR amyloid fibril formation assay (turbidimetry, acid-induced); format: biochemical; details: pH 4.4, 72 hours; for Fibril Formation (%): WT-TTR 3.6 μM, 1:1 TTR-compound stoichiometry, 37° C., normalized to no-compound control (100%); for IC50: WT-TTR fixed at 3.6 μM, ten compound concentrations; for inhibitory activity against TTR amyloid fibril formation compared with reference compounds (in words): TTR 3.6 μM
T1 construct: made in house; host or cells: E. coli BL21 (DE3), pET23a plasmid
Protocol: (§1) The first set of evaluations is based on a fast, stagnant fibril formation assay that is used for the early screening of compounds, be they virtual screening hits or newly synthesized analogues. In this assay, a solution of the compound under test at 1.8, 3.6 or 7.2 μM is added to a solution of TTR at 3.6 μM, so that there is enough compound to bind to either one or both of TTR's binding sites. The pH of the resulting solution is then lowered to 4.4 to promote amyloidogenesis. The process of amyloid fibril formation over time is assessed by turbidimetry measurements at three different wavelengths (405, 450 and 490 nm, or at 550, 600 and 650 nm when the compound absorbs light at the previous wavelengths), using a spectrophotometer endowed with a BioTek microplate reader. The extent of fibril formation of each mixture is determined by normalizing a sample with the protein (TTR), in absence of compounds, which, at the end of 72 hours, represents 100% of amyloid fibril formation. In each experiment, each compound concentration is tested in triplicate. For each compound concentration and incubation time, the arithmetic mean of the triplicate experiments is calculated, as well as the arithmetic mean of the three measured wavelengths. High activity can be defined as a percentage of fibril formation below 10% at compound concentration 7.2 μM (TTR:compound stoichiometry 1:2) and below 40% at 3.6 μM (TTR:compound stoichiometry 1:1).
The in vitro activity of the compounds was assessed through a biochemical assay based on turbidimetry measurements, in which fibril formation is induced by acidification of the solution to pH 4.4 after incubation with the hit compound to be tested. The amount of amyloid fibrils formed is then monitored throughout 72 hours. Further details on this assay are provided in the “Evaluation of amyloid inhibition in vitro” subsection in “Materials and Methods”.
Experimental evaluation of the in vitro activity of virtual screening hits against amyloid fibril formation by TTR was carried out using a biochemical assay based on turbidimetry measurements. In this assay, fibril formation is induced by acidification of the solution to pH 4.4 after incubation with the hit compound to be tested. The amount of amyloid fibrils formed is monitored over 72 hours. Further details on the assay are provided in the “Evaluation of amyloid inhibition in vitro” subsection below.
(§2) Purchased virtual screening hits and all synthesized (optimization) derivatives were dissolved in DMSO to a final concentration of 10.8 mM to provide a primary stock solution. Several secondary stock solutions were prepared in DMSO by dilution of the primary stock solution and the concentrations were chosen depending on the effectiveness of the compound in inhibiting the TTR amyloid fibril formation.
(§3) The fibril formation assay was adapted to run in a high-throughput screening mode. For this purpose, 96-well microplates were used with a final assay volume of 100 μL.
(§4) One microLitre (μL) of different compound secondary stock solutions was added to 50 μL of a 7.2 μM wild type TTR (WT-TTR) or Val122Ile-TTR (V122I-TTR) solutions in 10 miliMolar (mM) sodium phosphate buffer, 100 mM KCl and 1 mM EDTA, pH 7.2, previously dialyzed against the same buffer solution. After 30 minutes of incubation at room temperature, the pH of the mixture was lowered to 4.4 with 49 μL of 200 mM acetate buffer, 100 mM KCl and 1 mM EDTA, pH 4.3.
(§5) The mixtures were incubated at 37° C. during 72 hours. Turbidity at 405 nm, 450 nm and 490 nm (or at 550, 600 and 650 nm when the test compound absorbs light at the previous wavelengths) was measured over time (0, 17, 24, 41, 48, 65 and 72 hours) using a BioTek Microplate Spectrophotometer to evaluate the extent of fibril formation. Immediately before the turbidity measurements, the mixtures were gently shacked during 1 minute to homogenize well and not damage the formed amyloid aggregates and fibrils.

[2] = target: Val122Ile transthyretin (V122I-TTR) (Homo sapiens, UniProt P02766, V142I); assay: V122I-TTR amyloid fibril formation assay (turbidimetry, acid-induced); format: biochemical; details: pH 4.4, 72 hours; for Fibril Formation (%): V122I-TTR 3.6 μM, 37° C.; for IC50: V122I-TTR fixed at 3.6 μM, ten compound concentrations
Protocol: as §1, §2, §3, §4
as §5, with “fibrils. The final turbidity was calculated as an average of the three wavelengths measured.” for “fibrils.”
In addition, control samples containing TTR with no inhibitor and 1% DMSO, as well as inhibitor in absence of TTR were tested and analyzed.
The extent of amyloid fibril formation data was normalized to TTR in the absence of inhibitor, assigned to be 100% fibril formation (or 0% amyloid inhibition) at the end of the experiment.
The extent of amyloid fibril formation throughout 72 hours was determined as described in the “Evaluation of amyloid inhibition in vitro” subsection above.
IC50 values were calculated from the inhibition curves obtained by fitting the values by a nonlinear curve method using the OriginPro7 (OriginLab Corporation, USA).

[3] = read-out: IC50 (μM), concentration inhibiting WT-TTR amyloid fibril formation by 50%

Molecule | Fibril Formation (%) [1] [%] | IC50 [1] [µM] | Fibril Formation (%) [2] [%] | IC50 [2] [µM] | melting point [°C] | IC50 [1, 3] [µM] | inhibitory activity against TTR amyloid fibril formation compared with reference compounds (in words) [1] | IC50 ([2]; read-out: IC50 (μM), concentration inhibiting V122I-TTR amyloid fibril formation by 50%) [µM]
Cc1cc(/C=C2\SC(=S)N(CC(=O)O)C2=O)cc(C)c1O [AT50-A17, (Z)-3-hydroxycarbonylmethyl-5-(4′-hydroxy-3′,5′-dimethylphenylmethylidene)-2-thioxothiazolidin-4-one] | 27 | 2.37 ± 0.47 | 51 | 3.16 | 261 to 263 | – | – | –
(Z)-5-(3′-bromo-4′-hydroxy-5′-iodophenylmethylidene)-3-hydroxycarbonylmethyl-2,4-dioxothiazolidine [AT50-A51] | 5 | – | – | – | – | 1.07 ± 0.42 | – | –
Oc1c(Cl)cc(-c2cc(Cl)c(O)c(Cl)c2)cc1Cl [2OH- PCB80, 2,6-dichloro-4-(3,5-dichloro-4-oxidophenyl)benzen-1-olate, reference compound] | 20 | – | 24 | 1.45 | – | 1.59 ± 0.27 | – | –
Cc1cc(/C=C2\SC(=S)N(CCC(=O)O)C2=O)cc(O)c1O [AT50-C20, (Z)-5-(3′,4′-dihydroxy-5′-methylphenylmethylidene)-3-(2′-hydroxycarbonylethyl)-2-thioxothiazolidin-4-one] | 39 | – | – | – | 221 to 222 | – | – | –
COc1cc(/C=C2/SC(=S)N(CC(=O)O)C2=O)cc(Cl)c1O [AT50-A00 (E), (E)-3-hydroxycarbonylmethyl-5-(3′-chloro-4′-hydroxy-5′-methoxyphenylmethylidene)-2-thioxothiazolidin-4-one] | 26 | 1.73 ± 0.06 | 45 | 3.06 | – | – | – | –
(Z)-5-(3′,5′-dichloro-4′-hydroxyphenylmethylidene)-3-hydroxycarbonylmethyl-2,4-dioxothiazolidine [AT50-A49] | 4 | – | 12 | – | – | 0.89 ± 0.15 | – | 1.32
O=C(O)CC[C@@H](C(=O)O)N1C(=O)/C(=C/c2c(Cl)cccc2Cl)SC1=S [AT50-C00, (Z)-(1′S)-5-(2′,6′-dichlorophenylmethylidene)-3-(1′,3′-di(hydroxycarbonyl)propyl)-2-thioxothiazolidin-4-one] | 26 | 2.05 ± 0.04 | – | – | – | – | superior to that of reference compounds Tafamidis | –
NC(Cc1cc(I)c(Oc2cc(I)c(O)c(I)c2)c(I)c1)C(=O)O (stereo in doubt) [Thyroxine, (2S)-2-amino-3-[4-(4-hydroxy-3,5-diiodophenoxy)-3,5-diiodophenyl]propanoic acid, reference compound] | 28 | – | 42 | – | – | – | – | –

Continued, in another order:

Fibril Formation (%) [1] [%] | IC50 [1] [µM] | Fibril Formation (%) [2] [%] | IC50 [2] [µM] | melting point [°C] | Molecule | IC50 [1, 3] [µM] | inhibitory activity against TTR amyloid fibril formation compared with reference compounds (in words) [1] | IC50 ([2]; read-out: IC50 (μM), concentration inhibiting V122I-TTR amyloid fibril formation by 50%) [µM]
13 | 1.38 ± 0.3 | 39 | 2.66 | – | O=C(O)CC[C@@H](C(=O)O)N1C(=O)/C(=C/c2ccc(O)c(Br)c2)SC1=S [AT50-C01, (Z)-(1′S)-5-(3′-bromo-4′-hydroxyphenylmethylidene)-3-(1′,3′-di(hydroxycarbonyl)propyl)-2-thioxothiazolidin-4-one] | – | – | –
8 | 0.9 | – | – | – | O=C(O)CN1C(=O)/C(=C/c2cc(Br)c(O)c(Br)c2)SC1=S [AT50-A50, (Z)-5-(3′,5′-dibromo-4′-hydroxyphenylmethylidene)-3-hydroxycarbonylmethyl-2-thioxothiazolidin-4-one] | – | – | –
21 | 2.05 | – | – | 238 to 239 | COc1cc(/C=C2\SC(=S)N(CC(=O)O)C2=O)cc(C)c1O [AT50-A47, (Z)-3-hydroxycarbonylmethyl-5-(4′-hydroxy-3′-methoxy-5′-methylphenylmethylidene)-2-thioxothiazolidin-4-one] | – | – | –
33 | – | – | – | 243 to 245 | O=C(O)CCN1C(=O)/C(=C/c2cc(O)c(O)c(Cl)c2)SC1=S [AT50-C19, (Z)-5-(3′-chloro-4′,5′-dihydroxyphenylmethylidene)-3-(2′-hydroxycarbonylethyl)-2-thioxothiazolidin-4-one] | – | – | –
35 | 2.38 ± 0.17 | – | – | – | COc1cccc(/C=C2\SC(=S)N(C(C)C(=O)O)C2=O)c1 (centres unmarked) [AT50-B00, (Z)-3-(1′-hydroxycarbonylethyl)-5-(3′-methoxyphenylmethylidene)-2-thioxothiazolidin-4-one] | – | superior to that of reference compounds Tafamidis | –
35 | – | – | – | 213 to 214 | O=C(O)CN1C(=O)/C(=C/c2ccc(O)cc2)SC1=S [AT50-A11, (Z)-3-hydroxycarbonylmethyl-5-(4′-hydroxyphenylmethylidene)-2-thioxothiazolidin-4-one] | – | – | –
30 | – | – | – | 194 to 196 | COc1cc(/C=C2\SC(=S)N(CCC(=O)O)C2=O)cc(C)c1O [AT50-C18, (Z)-5-(4′-hydroxy-3′-methoxy-5′-methylphenylmethylidene)-3-(2′-hydroxycarbonylethyl)-2-thioxothiazolidin-4-one] | – | – | –
21 | 2.23 | – | – | 238 to 239 | Cc1cc(/C=C2\SC(=S)N(CC(=O)O)C2=O)cc(O)c1O [AT50-A35, (Z)-5-(3′,4′-dihydroxy-5′-methylphenylmethylidene)-3-hydroxycarbonylmethyl-2-thioxothiazolidin-4-one] | – | – | –
10 | 0.95 ± 0.45 | 20 | 1.48 | – | COc1cc(/C=C2\SC(=S)N([C@H](CC(C)C)C(=O)O)C2=O)cc(OC)c1O [AT50-B01, (Z)-(1′S)-5-(4′-hydroxy-3′,5′-dimethoxyphenylmethylidene)-3-(1′-hydroxycarbonylisopentyl)-2-thioxothiazolidin-4-one] | – | – | –
18 | 1.79 ± 0.13 | – | – | – | Cc1cc(/C=C2\SC(=S)N([C@@H](CCC(=O)O)C(=O)O)C2=O)cc(Cl)c1O [AT50-C02, (Z)-(1′S)-5-(3′-chloro-4′-hydroxy-5′-methylphenylmethylidene)-3-(1′,3′-di(hydroxycarbonyl)propyl)-2-thioxothiazolidin-4-one] | – | – | –
